Data: BindingDB's records for doi:10.1021/jm00076a015 (University of Pennsylvania, 1994)

Target: T1, Ribonucleoside-diphosphate reductase large subunit (Mus musculus, UniProt P07742)
T1 sequence (P07742 whole entry): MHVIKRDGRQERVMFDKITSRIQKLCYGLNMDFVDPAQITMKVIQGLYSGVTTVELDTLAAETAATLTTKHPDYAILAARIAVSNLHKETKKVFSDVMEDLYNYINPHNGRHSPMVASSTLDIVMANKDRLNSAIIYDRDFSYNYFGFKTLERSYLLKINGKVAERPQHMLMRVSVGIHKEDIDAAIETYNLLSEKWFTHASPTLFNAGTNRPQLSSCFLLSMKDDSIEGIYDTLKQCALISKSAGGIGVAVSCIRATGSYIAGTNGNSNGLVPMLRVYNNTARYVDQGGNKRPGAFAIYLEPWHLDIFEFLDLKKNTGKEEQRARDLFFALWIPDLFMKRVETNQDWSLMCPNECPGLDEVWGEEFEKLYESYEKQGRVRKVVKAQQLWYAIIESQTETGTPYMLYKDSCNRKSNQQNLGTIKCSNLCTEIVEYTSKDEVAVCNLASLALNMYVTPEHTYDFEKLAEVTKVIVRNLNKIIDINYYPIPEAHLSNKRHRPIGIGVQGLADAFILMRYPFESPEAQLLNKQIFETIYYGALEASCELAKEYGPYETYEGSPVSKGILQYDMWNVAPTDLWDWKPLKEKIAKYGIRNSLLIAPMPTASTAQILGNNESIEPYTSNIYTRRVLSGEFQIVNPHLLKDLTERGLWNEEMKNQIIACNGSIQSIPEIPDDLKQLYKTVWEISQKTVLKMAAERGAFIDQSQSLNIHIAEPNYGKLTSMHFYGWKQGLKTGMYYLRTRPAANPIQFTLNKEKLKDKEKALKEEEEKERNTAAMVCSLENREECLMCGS
Experiment: ChEBML_195421
Text: Inhibitory activity of compound against mammalian ribonucleotide reductase; Range is 40-42

- IC50: 41 µM
Substance: Ac-AGAFTFNEDF-OH
